# In PubChem BioAssay (NCI):
#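 All cell lines were grown in 96-well plates and treated with compound for 48 hours. The concentration for full growth arrest is given as TGI.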
# Key:
# Assay in all cases: DTP human tumour cell line panel, 48 h
# [1] = system: SN12C renal
# [2] = system: SK-OV-3 ovarian
# [3] = system: HT29 colon
# [4] = system: SK-MEL-5 melanoma
# [5] = system: A498 renal
# [6] = system: NCI/ADR-RES ovarian
# [7] = system: NCI-H460 lung
# [8] = system: BT-549 breast
# [9] = system: MDA-MB-231 breast
# [10] = system: MDA-MB-435
# [11] = system: NCI-H23 lung
# [12] = system: OVCAR-8 ovarian
# [13] = system: HS 578T breast
# [14] = system: SF-539 CNS
# [15] = system: SNB-19 CNS
# [16] = system: M14 melanoma
# [17] = system: ACHN renal
# [18] = system: K-562 leukemia
# [19] = system: HCT-116 colon
# [20] = system: MCF7 breast
# [21] = system: U251 CNS
# [22] = system: UACC-62 melanoma
# [23] = system: DU-145 prostate
# [24] = system: EKVX NSCLC
# [25] = system: MOLT-4 leukemia
# [26] = system: UACC-257 melanoma
# [27] = system: SNB-75 CNS
# [28] = system: HL-60(TB) leukemia
# [29] = system: NCI-H226 lung
# [30] = system: SR leukemia
# [31] = system: OVCAR-4 ovarian
# [32] = system: LOX IMVI melanoma
# [33] = system: CAKI-1 renal
# [34] = system: T-47D breast
# [35] = system: OVCAR-3 ovarian
# [36] = system: HCT-15 colon
# [37] = system: RXF 393 renal
# [38] = system: SK-MEL-2 melanoma
# [39] = system: MDA-N
# [40] = system: NCI-H522 lung
# [41] = system: HOP-62 NSCLC
# [42] = system: MALME-3M melanoma
# [43] = system: SW-620 colon
# [44] = system: SK-MEL-28 melanoma
# [45] = system: COLO 205 colon
# [46] = system: SF-268 CNS
# [47] = system: 786-0 renal
# [48] = system: KM12 colon
# [49] = system: OVCAR-5 ovarian
# [50] = system: RPMI-8226 leukemia
# [51] = system: HOP-92 NSCLC
# [52] = system: A549 NSCLC
# [53] = system: UO-31 renal
# [54] = system: TK-10 renal
# [55] = system: IGROV1 ovarian
# [56] = system: CCRF-CEM leukemia
# [57] = system: PC-3 prostate
# [58] = system: SF-295 CNS
smiles,measurement,setting,value
O=C(N/N=C/c1ccc([N+](=O)[O-])cc1)c1cccc2nc3ccccc3nc12,TGI,[1],> 100 µM
same,TGI,[2],> 100 µM
same,TGI,[3],> 100 µM
same,TGI,[4],> 100 µM
same,TGI,[5],> 100 µM
same,TGI,[6],> 100 µM
same,TGI,[7],> 64.4 µM
same,TGI,[8],> 100 µM
same,TGI,[9],> 100 µM
same,TGI,[10],> 100 µM
same,TGI,[11],> 100 µM
same,TGI,[12],> 100 µM
same,TGI,[13],73.6 µM
same,TGI,[14],> 65.6 µM
same,TGI,[15],> 100 µM
same,TGI,[16],> 100 µM
same,TGI,[17],> 73.8 µM
same,TGI,[18],> 100 µM
same,TGI,[19],> 100 µM
same,TGI,[20],> 100 µM
same,TGI,[21],> 100 µM
same,TGI,[22],> 100 µM
same,TGI,[23],> 100 µM
same,TGI,[24],> 100 µM
same,TGI,[25],> 100 µM
same,TGI,[26],> 100 µM
same,TGI,[27],> 100 µM
same,TGI,[28],> 100 µM
same,TGI,[29],> 100 µM
same,TGI,[30],> 64.7 µM
same,TGI,[31],> 100 µM
same,TGI,[32],> 100 µM
same,TGI,[33],> 100 µM
same,TGI,[34],> 100 µM
same,TGI,[35],> 100 µM
same,TGI,[36],> 100 µM
same,TGI,[37],> 80.7 µM
same,TGI,[38],> 100 µM
same,TGI,[39],> 100 µM
same,TGI,[40],> 100 µM
same,TGI,[41],22.7 µM
same,TGI,[42],> 100 µM
same,TGI,[43],> 100 µM
same,TGI,[44],> 100 µM
same,TGI,[45],> 100 µM
same,TGI,[46],> 100 µM
same,TGI,[47],> 100 µM
same,TGI,[48],> 100 µM
same,TGI,[49],> 100 µM
same,TGI,[50],> 100 µM
same,TGI,[51],> 87.3 µM
same,TGI,[52],> 100 µM
same,TGI,[53],> 100 µM
same,TGI,[54],> 69.2 µM
same,TGI,[55],> 100 µM
same,TGI,[56],> 100 µM
same,TGI,[57],> 100 µM
same,TGI,[58],> 100 µM
